Results from patent US20260124214A1, “HETEROCYCLIC COMPOUNDS FOR USE IN THE TREATMENT OF CANCER” (ARTIOS PHARMA LIMITED, priority 2021, published 2026).
Counter-ions that a name gives are not always drawn.

Biological target: T1, Human Polθ polymerase domain (aa1820-2590) (Homo sapiens, UniProt O75417)
T1 construct: Human Polθ polymerase domain (aa1820-2590) was expressed in E. Coli; made in house; host or cells: E. coli
T1 sequence (O75417 1820-2590): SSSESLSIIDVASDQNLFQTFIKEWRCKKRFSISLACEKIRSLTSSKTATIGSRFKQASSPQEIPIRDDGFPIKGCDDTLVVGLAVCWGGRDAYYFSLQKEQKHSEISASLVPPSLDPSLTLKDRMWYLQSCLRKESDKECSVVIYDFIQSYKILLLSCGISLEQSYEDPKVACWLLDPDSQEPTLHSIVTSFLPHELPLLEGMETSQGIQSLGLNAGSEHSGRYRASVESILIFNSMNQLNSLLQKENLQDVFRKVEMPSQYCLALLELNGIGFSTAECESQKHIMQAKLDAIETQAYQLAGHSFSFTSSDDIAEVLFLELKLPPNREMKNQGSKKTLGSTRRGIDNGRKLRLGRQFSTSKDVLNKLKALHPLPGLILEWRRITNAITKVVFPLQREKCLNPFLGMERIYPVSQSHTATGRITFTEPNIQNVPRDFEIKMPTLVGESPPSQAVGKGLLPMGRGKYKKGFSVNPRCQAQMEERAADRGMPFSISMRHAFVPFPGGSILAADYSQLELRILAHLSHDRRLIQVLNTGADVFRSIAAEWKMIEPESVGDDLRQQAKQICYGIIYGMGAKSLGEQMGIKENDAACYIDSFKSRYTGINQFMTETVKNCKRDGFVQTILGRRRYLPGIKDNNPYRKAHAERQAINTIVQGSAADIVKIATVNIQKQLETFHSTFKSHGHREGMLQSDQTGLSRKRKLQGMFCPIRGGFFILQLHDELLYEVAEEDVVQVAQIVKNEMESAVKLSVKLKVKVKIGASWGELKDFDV
Assay: Polθ Polymerase Domain WT KI Assay (PicoGreen)
Format: biochemical
Settings: 100 nM DNA substrate, 0.156 nM Polθ, initial rates vs inhibitor concentration
Description: A PicoGreen assay was used to measure the KI values of reversible compounds that inhibit the activity of Polθ in vitro.
Human Polθ polymerase domain (aa1820-2590) was expressed in E. Coli, purified, aliquoted and stored at −80° C. until required. Polθ substrate was generated from a 1.2:1 mix of DNA II Short to DNA II Long to give a final concentration of […] substrate in annealing buffer (20 mM Tris pH 7.5, 50 mM NaCl). The substrate was heated in 50 mL aliquots to 95° C. in a heating block for 5 min before the heating block switched off, the reaction left to cool to rt and stored at −20° C. until required.
Assay measurements were performed with 1× buffer comprising 25 mM Tris pH 7.5, 12.5 mM NaCl, […], 5% (v/v) glycerol, 0.01% v/v Triton x-100, 0.1 mg/ml BSA, 1 mM DTT. […] 100 nL of 23×1:1.5-fold serial dilutions and a DMSO only control were dispensed using the Tecan dispenser into Greiner 384 well black low volume plates (product code 784076). DMSO concentration was maintained at 1% of the final assay volume by back filling with DMSO.
To stop the reaction, 5 μL of a solution containing 25 mM Tris-HCl PH 7.5 and 20 mM EDTA was added at […] (t=0, 15, 30, 60, 90, 120, 150, 180 mins) using the Tempest's time delay function. The plates were covered during the time course to prevent evaporation. After completing the assay, 5 μL of detection reagent (25 mM Tris-HCl pH 7.5 and 2.5% (v/v) PicoGreen) was dispensed into the wells using a Tempest liquid handler (Formulatrix) and plates subsequently read on the CLARIOstar Plus (BMG Labtech) using the default optical settings for fluorescein and the auto gain/focus settings.
All data analysis was carried out using GraphPad Prism V.8 (GraphPad Software Inc, San Diego, CA). Time course data for each inhibitor concentration were fitted to the linear regression model in GraphPad Prism. Any time points where the control (DMSO only) reaction was no longer linear were excluded from the analysis. The initial rates (slopes) obtained from the linear regression were then plotted against inhibitor concentration and fitted to an inhibitor vs. response variable slope (four parameter) model on GraphPad Prism to determine the KI values.

Structure (SMILES)	Ki [nM]
Cc1cc(C(F)(F)F)cc(N2C(=O)C[C@@H]3CN(CC(C)O)c4c(Cl)cccc4N(C)C(=O)[C@H]32)n1 (mixture of isomers) [Example 131a, (3aR,11aS)-6-chloro-5-((S/R)-2-hydroxypropyl)-10-methyl-1-(6-methyl-4-(trifluoromethyl)pyridin-2-yl)-1,3a,4,5,10,11a-hexahydro-2H-benzo[b]pyrrolo[2,3-f][1,4]diazocine-2,11(3H)-dione]	1.99
Cc1cc(C(F)(F)F)cc(N2C(=O)C[C@@H]3CN(C[C@H]4COCCN4)c4c(F)cccc4N(C)C(=O)[C@H]32)n1 (racemic) [Example 106b, (3aR,11aS)-6-Fluoro-10-methyl-1-(6-methyl-4-(trifluoromethyl)pyridin-2-yl)-5-(((S/R)-morpholin-3-yl)methyl)-1,3a,4,5,10,11a-hexahydro-2H-benzo[b]pyrrolo[2,3-f][1,4]diazocine-2,11(3H)-dione]	28.2
Cc1cc(C(F)(F)F)cc(N2C(=O)C[C@@H]3CN(C[C@H]4COCCN4)c4c(C)cccc4N(C)C(=O)[C@H]32)n1 (racemic) [Example 112b, (3aR,11aS)-6,10-Dimethyl-1-(6-methyl-4-(trifluoromethyl)pyridin-2-yl)-5-(((S/R)-morpholin-3-yl)methyl)-1,3a,4,5,10,11a-hexahydro-2H-benzo[b]pyrrolo[2,3-f][1,4]diazocine-2,11(3H)-dione]	1.81
Cc1cc(C(F)(F)F)cc(N2C(=O)C[C@@H]3CN(Cc4cn5c(n4)[C@H](C)N(C)CC5)c4c(C)cccc4N(C)C(=O)[C@H]32)n1 (racemic) [Example 116b, (3aR,11aS)-5-(((S/R)-7,8-Dimethyl-5,6,7,8-tetrahydroimidazo[1,2-a]pyrazin-2-yl)methyl)-6,10-dimethyl-1-(6-methyl-4-(trifluoromethyl)pyridin-2-yl)-1,3a,4,5,10,11a-hexahydro-2H-benzo[b]pyrrolo[2,3-f][1,4]diazocine-2,11(3H)-dione]	0.421
Cc1cc(C(F)(F)F)cc(N2C(=O)C[C@@H]3CN(C[C@@H]4CCCCN4C)c4c(Cl)cccc4N(C)C(=O)[C@H]32)n1 (racemic) [Example 117b, (3aR,11aS)-6-Chloro-10-methyl-1-(6-methyl-4-(trifluoromethyl)pyridin-2-yl)-5-(((S/R)-1-methylpiperidin-2-yl)methyl)-1,3a,4,5,10,11a-hexahydro-2H-benzo[b]pyrrolo[2,3-f][1,4]diazocine-2,11(3H)-dione]	4.09
Cc1cc(C(F)(F)F)cc(N2C(=O)C[C@@H]3CN(C[C@H]4COCCN4C)c4c(Cl)cccc4N(C)C(=O)[C@H]32)n1 (racemic) [Example 119a, (3aR,11aS)-6-Chloro-10-methyl-1-(6-methyl-4-(trifluoromethyl)pyridin-2-yl)-5-(((S/R)-4-methylmorpholin-3-yl)methyl)-1,3a,4,5,10,11a-hexahydro-2H-benzo[b]pyrrolo[2,3-f][1,4]diazocine-2,11(3H)-dione]	1.28

The remaining molecules from weak to strong by Ki, led by results:

Ki [nM]	Structure (SMILES)
11.8	Cc1cc(C(F)(F)F)cc(N2C(=O)C[C@@H]3CN(CC(C)O)c4c(F)cccc4N(C)C(=O)[C@H]32)n1 (mixture of isomers) [Example 130a, (3aR,11aS)-6-fluoro-5-((S/R)-2-hydroxypropyl)-10-methyl-1-(6-methyl-4-(trifluoromethyl)pyridin-2-yl)-1,3a,4,5,10,11a-hexahydro-2H-benzo[b]pyrrolo[2,3-f][1,4]diazocine-2,11(3H)-dione]
6.04	Cc1cc(C(F)(F)F)cc(N2C(=O)C[C@@H]3CN(C[C@@H]4CCCN4C)c4c(Cl)cccc4N(C)C(=O)[C@H]32)n1 (racemic) [Example 118b, (3aR,11aS)-6-Chloro-10-methyl-1-(6-methyl-4-(trifluoromethyl)pyridin-2-yl)-5-(((S/R)-1-methylpyrrolidin-2-yl)methyl)-1,3a,4,5,10,11a-hexahydro-2H-benzo[b]pyrrolo[2,3-f][1,4]diazocine-2,11(3H)-dione]
5.21	Cc1cc(C(F)(F)F)cc(N2C(=O)C[C@@H]3CN(C[C@@H]4CCCN4)c4c(Cl)cccc4N(C)C(=O)[C@H]32)n1 (racemic) [Example 107b, (3aR,11aS)-6-Chloro-10-methyl-1-(6-methyl-4-(trifluoromethyl)pyridin-2-yl)-5-(((S/R)-pyrrolidin-2-yl)methyl)-1,3a,4,5,10,11a-hexahydro-2H-benzo[b]pyrrolo[2,3-f][1,4]diazocine-2,11(3H)-dione]
4.14	Cc1cc(C(F)(F)F)cc(N2C(=O)C[C@@H]3CN(C[C@@H]4CN(C)CCO4)c4c(Cl)cccc4N(C)C(=O)[C@H]32)n1 (racemic) [Example 120b, (3aR,11aS)-6-Chloro-10-methyl-1-(6-methyl-4-(trifluoromethyl)pyridin-2-yl)-5-(((S/R)-4-methylmorpholin-2-yl)methyl)-1,3a,4,5,10,11a-hexahydro-2H-benzo[b]pyrrolo[2,3-f][1,4]diazocine-2,11(3H)-dione hydrochloride]
2.98	Cc1cc(C(F)(F)F)cc(N2C(=O)C[C@@H]3CN(C[C@@H]4CCCCN4)c4c(Cl)cccc4N(C)C(=O)[C@H]32)n1 (racemic) [Example 105b, (3aR,11aS)-6-Chloro-10-methyl-1-(6-methyl-4-(trifluoromethyl)pyridin-2-yl)-5-(((S/R)-piperidin-2-yl)methyl)-1,3a,4,5,10,11a-hexahydro-2H-benzo[b]pyrrolo[2,3-f][1,4]diazocine-2,11(3H)-dione]
2.48	Cc1cc(C(F)(F)F)cc(N2C(=O)C[C@@H]3CN(Cc4ccc([C@@H]5CCCN5C)cc4)c4c(F)cccc4N(C)C(=O)[C@H]32)n1 (racemic) [Example 125b, (3aR,11aS)-6-Fluoro-10-methyl-1-(6-methyl-4-(trifluoromethyl)pyridin-2-yl)-5-(4-((S/R)-1-methylpyrrolidin-2-yl)benzyl)-1,3a,4,5,10,11a-hexahydro-2H-benzo[b]pyrrolo[2,3-f][1,4]diazocine-2,11(3H)-dione]
2.17	Cc1cc(C(F)(F)F)cc(N2C(=O)C[C@@H]3CN(C[C@H]4COCCN4)c4c(Cl)cccc4N(C)C(=O)[C@H]32)n1 (racemic) [Example 108a, (3aR,11aS)-6-Chloro-10-methyl-1-(6-methyl-4-(trifluoromethyl)pyridin-2-yl)-5-(((S/R)-morpholin-3-yl)methyl)-1,3a,4,5,10,11a-hexahydro-2H-benzo[b]pyrrolo[2,3-f][1,4]diazocine-2,11(3H)-dione]
2.02	Cc1cc(C(F)(F)F)cc(N2C(=O)C[C@@H]3CN(C[C@@H]4CNCCO4)c4c(Cl)cccc4N(C)C(=O)[C@H]32)n1 (racemic) [Example 109b, (3aR,11aS)-6-Chloro-10-methyl-1-(6-methyl-4-(trifluoromethyl)pyridin-2-yl)-5-(((S/R)-morpholin-2-yl)methyl)-1,3a,4,5,10,11a-hexahydro-2H-benzo[b]pyrrolo[2,3-f][1,4]diazocine-2,11(3H)-dione]
1.66	Cc1cc(C(F)(F)F)cc(N2C(=O)C[C@@H]3CN(Cc4cn5c(n4)[C@H](C)N(C)CC5)c4c(Cl)cccc4N(C)C(=O)[C@H]32)n1 (racemic) [Example 96b, (3aR,11aS)-6-Chloro-5-(((S/R)-7,8-dimethyl-5,6,7,8-tetrahydroimidazo[1,2-a]pyrazin-2-yl)methyl)-10-methyl-1-(6-methyl-4-(trifluoromethyl)pyridin-2-yl)-1,3a,4,5,10,11a-hexahydro-2H-benzo[b]pyrrolo[2,3-f][1,4]diazocine-2,11(3H)-dione]
